Experimental findings from US11513122B2, “Predicting response to PD-1 axis inhibitors” (Hoffmann-La Roche Inc., priority 2016, dated 2022) are described below.

In assay [1] the test system is patients with non-small cell lung cancer (NSCLC). In words: Phase II clinical trial POPLAR (NCT01903993), overall survival by DC gene expression. The format is in vivo, human. From the text: Further to Example 3, we analyzed 193 patients with non-small cell lung cancer (NSCLC) previously treated, then received atezolizumab or docetaxel in a Phase II clinical trial POPLAR. This study is registered with ClinicalTrials.gov, number NCT01903993. POPLAR is a multicentre, randomised, open-label phase II trial, done at 61 academic medical centers and community oncology practices across 13 countries in Europe and North America. The study was done in full accordance with the guidelines for Good Clinical Practice and the Declaration of Helsinki. Protocol (and modification) approval was obtained from an independent ethics committee for each site (Fehrenbacher L, et. Al., Lancet 2016). Among those patients with squamous or non-squamous NSCLC, 96 received Docetaxel, and 92 received atezolizumab, and the rest of 5 left untreated (Table 1).
Tumor specimens at baseline were archived and taken for gene expression profiling performed by RNA Sequencing (RNA-Seq). Based on literature (Merad M. et al, Ann. Rev. Immunol. 2013), we selected a list of genes consisting of XCR1, IRF8, BATF3, and FLT3, which are associated with human dendritic cell phenotypes and development with cross-presenting specialization. Normalized read counts of each selected gene across the whole cohort were divided at medium expression level for the higher expression ones (+) and lower/no expression ones (−). Using in-house R scripts the two defined subgroups were plotted against the Kaplan-Meier survival curves. In addition, Cox-regression analysis was used to calculate the hazard ratio (HR) between the two patient groups divided based on positive and negative gene expression.
We also investigated the impact of multiple genes involved in human DC development and function (XCR1, BATF3, FLT3, and IRF8) by defining a cumulative DC gene score (DC score) reflecting the cumulative expression of these marker genes. Each gene's expression is first standardized by a z-score:
where μ and σ are estimated in the entire cohort or in the selected subgroups. After the standardization step, these standardized z-score values are averaged across genes within each patient. The cohort was corrected for the smoking status, ECOG and sex of patient. Then the score was plotted against the Kaplan-Meier survival curves.

Assay [2] has as its system patients with renal cell carcinoma. In words: Phase I clinical trial (NCT01375842), response and survival by DC gene expression. The format is in vivo, human. An excerpt: We hypothesized that patients with DC abundance may respond to PD-L1 blockade leading to beneficial effect in patients who received the treatment. We analyzed 56 patients with renal cell carcinoma who received Atezolizumab in a Phase I clinical trial (NCT01375842) (www.clinicaltrials.gov). This study was sponsored by Genentech Inc., a member of the Roche Group, which provided the study drug. The protocol and its amendments were approved by the relevant institutional review boards or ethics committees, and all participants provided written informed consent. This study was conducted in accordance with the Declaration of Helsinki and International Conference on Harmonization Guidelines for Good Clinical Practice. In total, 56 patients were analyzed. Based on the “Best Confirmed Overall Response by the Investigator” we observed 6 responders (CR=1; PR=5) and 47 non-responder (PD=21; SD=26) as well as 3 patients without known information (FIG. 7).
Tumor specimens at baseline were archived and taken for gene expression profiling performed by RNA Sequencing (RNA-Seq). Based on literature (Merad, ann rev immunol 2013), we selected a list of genes consisting of XCR1, IRF8, BATF3 and FLT3, which are associated with human dendritic cell development with cross-presenting specialization. The log 2 RPKM expression values of each selected gene across the whole cohort were divided at medium expression level for the higher expression ones (+) and lower/no expression ones (−). Using in-house R scripts the two defined subgroups were plotted against the Kaplan-Meier survival curves. […] The medium survival between patients with higher expression versus lower/no expression were separated for at least 15.6 months or longer (FIG. 9).
As several genes linked to human dendritic cell development were associated with the survival advantages, we investigated the impact of multiple genes involved in human DC development and function by defining a cumulative DC gene score (DC score) reflecting the cumulative expression of these marker genes. Each gene's expression is first standardized by a z-score: z=(x−μ)/σ,
where μ and σ are estimated in the entire cohort or in the selected subgroups. After the standardization step, these standardized z-score values are averaged across genes within each patient. The RCC cohort was corrected for the sex of patient as well as the Stage at Initial Diagnosis.

In assay [3] the test system is MC38 cells (colorectal cancer cell lines). In words: MC38 tumor model in CD11c-DTR mice with or without DC depletion by DT. The class given is in vivo. To be noted: MC38 s.c.; DT 100 ng at day 6; anti-PD-L1 Ab 10 mg/kg from day 7, weekly; FIG. 6B. Here is the method:
To further study the contribution of DCs by PD-L1 blockade in mediating anti-tumor immunity, we obtained the CD11c-DTR mice from the Jackson laboratory (B6.FVB-Tg(Itgax-DTR/EGFP)57Lan/J, Cat. No. 004509). […]. When tumor is palpable at day 6, mice were treated with 100 ng of DT (Sigma-Aldrich) or left untreated. At day 7, a anti-PD-L1 Ab (10 mg/kg, murine IgG1, clone 6E11, Genentech) was given to mice, followed by weekly injection (FIG. 6A). […] Our data support the concept that DCs are needed for PD-L1 Ab to achieve its maximum anti-tumor efficacy.

Another assay deals with human DCs. The assay can be described thus: Maturation of monocyte-derived DCs by LPS, PD-1/PD-L1 staining by flow cytometry. The note with it: LPS 10 ng/mL, FIGS. 2A-2B. The class given is cell-based. Here is the method:
To address the potential regulation of PD-1 and its ligands on human DCs, monocyte-derived DCs were generated using the classical method. Briefly, Peripheral Blood Mononuclear Cells (PBMCs) were isolated from buffy-coats (Blutspende, Schlieren) from healthy human donors, using Ficoll-Paque™ Plus (GE Healthcare, #17-1440-03) density gradient. Rings of PBMCs were collected and washed with PBS two times by centrifugation (5′ at 763 g; 5′ at 600 g). A lysis was conducted using 10 mL of BD Pharm Lyse™ (BD Biosciences, #555899) diluted at 1× with sterile water and incubated 1,5 minute at room temperature. Two washes with Phosphate-buffered saline 1× (PBS; Gibco® by live technologies™, #20012-019) were conducted by centrifugation (8′ at 135 g). Cells number and quality were evaluated using Cell counter (Beckman Coulter®). Separate unrelated donors were used for each independent experiment. Monocytes were isolated from fresh PBMCs by negative selection using Human monocyte enrichment kit (StemCell, #19059) in MACs buffer (1450 mL Automacs™ Rinsing solution, Miltenyi #130-091-222; and 75 mL MACS BSA stock Solution, Miltenyi #130-091-376) according to the manufacturer's instructions. […] The cells were then stained with anti-PD-1-PE-Cy7 and anti-PD-L1-APC Abs (BioLegend®; #329917, #329707), and measured by flow cytometry (BD). […]

Setting [4] is: NSCLC, XCR1 divided at medium expression level.

Consider atezolizumab, for which the “separation of medium OS, higher versus lower/no XCR1 expression” value in assay [1] (NSCLC) is given as ~7 months. For the same molecule, in assay [1] (setting [4]), the “medium overall survival (mOS), patients with higher XCR1 expression” value is on record as 15.5 month and the “medium overall survival (mOS), patients with lower/no XCR1 expression” value was found to be 8.6 month. Besides, in assay [1] (NSCLC, all patients), the “medium OS, patients with higher DC signature score” value turned out to be 16.4 months; the “medium OS, patients with lower/no DC signature expression” value amounted to 8.5 months; the “separation of medium OS, higher versus lower/no DC signature expression” value is 7.9 months. The “HR, higher versus lower DC signature score” value in assay [1] (NSCLC, all patients, p=0.04, FIG. 11) stood at 0.54. The “hazard ratio (HR) by Cox-regression analysis, higher versus lower/no XCR1 expression” value in assay [1] (NSCLC, p=0.077) was 0.6. Also, in assay [1] (PD-L1+ patients), the “median OS, patients with lower/no expression” value is 8.4 months and the “medium OS, patients with higher DC gene score” value is reported as “not reached”. Further, the “HR, higher versus lower DC signature score” value in assay [1] (PD-L1+ patients (TC3, TC2, IC3, IC2), p=0.03, FIG. 12) worked out at 0.25. In assay [2] (56 patients analyzed), the CR was 1, the PD was found to be 21, the PR came to 5 and the non-responder is reported as 47. In addition, in assay [2] (56 patients analyzed, FIG. 7), the “responders (Best Confirmed Overall Response by the Investigator)” value is listed as 6. Moreover, the “HR, higher versus lower DC score” value in assay [2] (RCC, p=0.03, FIG. 10) was 0.38. For the same molecule, in assay [2] (cumulative DC gene score (XCR1, IRF8, BATF3, FLT3), FIG. 10), the “medium survival, patients with higher DC score” value is “without reaching medium survival”. Besides, in assay [2] (single genes XCR1, IRF8, BATF3, FLT3, FIG. 9), the “separation of medium survival between patients with higher expression versus lower/no expression” value is listed as “at least 15.6 months”.
As to diphtheria toxin [DT], the tumor growth result in assay [3] is reported as “did not impact the tumor growth”.
Consider `CC(=O)O[C@@]12CO[C@@H]1C[C@H](O)[C@@]1(C)C(=O)[C@H](O)C3=C(C)[C@@H](OC(=O)[C@H](O)[C@@H](NC(=O)OC(C)(C)C)c4ccccc4)C[C@@](O)([C@@H](OC(=O)c4ccccc4)[C@H]21)C3(C)C` [docetaxel], for which the “correlation of XCR1 expression to survival” value in assay [1] (NSCLC) is recorded as “no correlation”. The “correlation of DC genes expression to survival” value in assay [1] (PD-L1+ patients) is “no correlation”.
Consider lipopolysaccharide [LPS], for which, in the assay on human DCs, the “PD-1 expression on DCs upon maturation” value is “downregulated” and the “PD-L1 expression on DCs upon maturation” value is on record as “upregulated”.
